In publication PMC9820118, “Betulin Acid Ester Derivatives Inhibit Cancer Cell Growth by Inducing Apoptosis through Caspase Cascade Activation: A Comprehensive In Vitro and In Silico Study” (International Journal of Molecular Sciences, 2022):
Entries after “also recorded” stand apart in the source; their conditions may differ.

Experiments:
MV4-11 cells [1] = experiment: Antiproliferative activity, MTT assay, MV4-11 leukemia cells; format: cell-based, human
Experimental: (§7) The in vitro antiproliferative activity tests have been conducted against four human cancer cell lines: MV4-11 biphenotypic B myelomonocytic leukemia cell line, A549 lung carcinoma cell line, MCF-7 breast carcinoma cell line, PC-3 prostate carcinoma cell line and one normal BALB/3T3 mouse fibroblast cell line. […] All tested compounds were dissolved in DMSO and diluted with a culture medium to a desired concentration. […] Cell viability, after 72 h incubation of the cells with tested compounds, was determined using tetrazolinum dye MTT (for MV4-11 cells) or sulforhodamine B (SRB test, for MCF-7, A549, PC-3, BALB/3T3 cells) colorimetric assays.
(§8) Human biphenotypic B myelomonocytic leukemia MV4-11, murine normal fibroblast BALB/3T3 cells were obtained from the American Type Culture Collection (USA); and human lung carcinoma A549, human breast cancer MCF-7 and human prostate adenocarcinoma PC-3 were obtained from the European Collection of Authenticated Cell Cultures (UK).
(§9) MV4-11 and PC-3 cells were cultured in RPMI 1640 medium (HIIET PAS, Poland) with 1.0 mM sodium pyruvate (only MV4-11) and 10% fetal bovine serum (FBS) (all from Merck, Darmstadt, Germany). A549 cells were cultured in RPMI 1640 + Opti-MEM (1:1) ((HIIET PAS, Poland and Gibco, UK) supplemented with 5% fetal bovine serum (Merck, Darmstadt, Germany). The MCF-7 cells were cultured in Eagle medium (HIIET PAS, Poland) supplemented with 8 mg/mL of insulin and 1% of MEM NON-Essential amino acid (all Merck, Darmstadt, Germany). Normal fibroblasts BALB/3T3 cells were cultured in DMEM medium (Gibco, UK) supplemented with 10% fetal bovine serum and 1.0 mM sodium pyruvate (all from Merck, Darmstadt, Germany). All culture media were supplemented with 2 mM L-glutamine (Merck, Darmstadt, Germany), 100 units/ml penicillin, (Polfa Tarchomin S.A., Poland) and 100 µg/mL streptomycin (Merck, Darmstadt, Germany). All cell lines were grown at 37 °C in a 5% CO2 humidified atmosphere.
(§10) The solutions of the tested compounds were prepared by dissolving the substances in DMSO to the desired concentration (25 mM). Then, the tested compounds were diluted in a culture medium to reach the final concentrations. Before addition of the tested compounds (24 h prior), the cells were plated in 96-well plates (Sarstedt, Germany) at a density of 1 × 10^4, 0.75 × 10^4 (MCF-7) or 0.5 × 10^4 (A549) cells per well. The assay was performed after 72 h of exposure to 100, 10, 1 and 0.1 µM concentration of the tested agents. […] The SRB method determined the amount of cellular proteins. The concentration of the colorimetric probe (formazan in MTT or sulforhodamine B in SRB method) was determined by an optical density measurement using a standard microplate reader for 96-well plates. After optical density measurement, using the data of the mean absorbances of control cells (AbCC), the absorbances of cells treated by the tested compound (AbTr) (for each concentration separately) and the absorbance of the cultured medium (AbCM) the % of cell proliferation inhibition was calculated according to the following formula: % inh. cells proliferation=100−AbTr−AbCM/AbCC−AbCM×100
(§11) From the obtained proliferation inhibition values, effect-concentration curves of the compound used were plotted. […] IC50 values were calculated for each experiment separately using the Prolab-3 system based on Cheburator 0.4 software [36] and mean values (±SD) are presented. Each compound in each concentration was tested in triplicate in a single experiment, which was repeated 3–5 times.

A549 cells [2] = experiment: Induction of apoptosis, Annexin V/PI staining, A549; format: cell-based, human; details: about 1.5 × IC50, 24 h
From the text: (§1) Apoptosis is one of a cell’s natural mechanisms for programmed cell death. It plays a crucial role in homeostasis by eliminating the unwanted or unnecessary cells. One of the most important functions of apoptosis is prevention of cancer. However, cancer cells often lose the ability to enter the path of apoptosis, which allows them to survive longer and grow in an uncontrolled manner. Regardless of that, apoptosis still remains the most important molecular mechanism to combat cancer cells; therefore, research is conducted to obtain agents with the ability to selectively induce apoptosis in cancer cell lines.
(§2) The MV4-11, A549 and PC-3 cells were seeded on 24-well plates (Sarstedt, Germany) for a final volume of 1.5 mL. […] After incubation, the cells were collected and 2 × 10^5 of cells were washed twice with PBS. […] Results were analyzed using Flowing software 2.5.1. […]

PC-3 cells = experiment: Induction of apoptosis, Annexin V/PI staining, PC-3; format: cell-based, human; details: about 1.5 × IC50, 72 h
From the text: as §1, §2

A549 cells [3] = experiment: Cell cycle analysis, PI staining flow cytometry, A549; format: cell-based, human
Experimental: (§3) The effects of the selected derivatives on the cell cycle were analyzed by flow cytometry using PI staining.
(§4) The MV4-11, A549 and PC-3 cells were seeded on 24-well plates (Sarstedt, Germany) for a final volume of 1.5 mL. […] After incubation, the cells were collected and 1 × 10^6 of cells were washed twice in cold PBS and fixed for 24 h in 70% ethanol at −20 °C, the cells were washed twice in PBS and incubated with RNAse (8 μg/mL, Fermentas, Germany) at 37 °C for 1 h. The cells were stained for 30 min. with propidium iodide (50 μg/mL, Sigma Aldrich, Germany) at 4 °C and the cellular DNA content was analyzed by flow cytometry using BD LSRFortessa cytometer (BD Bioscience, San Jose, CA, USA). Compounds at each concentration were tested at least three times independently. The obtained results were analyzed using Flowing software 2.5.1 (Cell Imaging Core, Turku Centre for Biotechnology, University of Turku and Åbo Akademi University, Turku, Finland).

MV4-11 cells [4] = experiment: Cell cycle analysis, PI staining flow cytometry, MV4-11; format: cell-based, human; details: about IC50, 24 and 72 h
Experimental: as §3, §4

caspase-3/7 [5] = experiment: Caspase-3/7 activity (AC-DEVD-AMC substrate) in A549 cells; format: cell-based, human; set-up: key: +: plus mark represents statistically important elevated activity of caspase 3/7 compared to control
From the text: (§5) Caspase-3 and caspase-7 are cysteine-aspartic acid proteases that can directly execute apoptosis […] sequential activation of caspase-8 or caspase-9. Activation of these enzymes leads to apoptotic cell death; thus, measuring their activity is a good method to determine the pro-apoptotic potential of tested compounds. One of the mechanisms of betulin’s antiproliferative activity is activation of these enzymes; therefore, to further examine the mechanism of action of tested derivatives, we decided to determine their levels.
(§6) The MV4-11, A549 and PC-3 cells were seeded on 48-well plates for a final volume of 1 mL. […] After incubation, the cells were collected and centrifuged (5 min., 4 °C, 250× g). Cells were suspended in 50 µL of ice-cold lysis buffer (50 mM HEPES, 10% (w/v) sucrose, 150 mM NaCl, 2 mM EDTA and 1% (v/v) Triton X-100, pH 7.3, HIIET, Poland) and incubated 30 min. at […]. After the incubation, 40 µL of each sample was transferred to a white, 96-well plate (Corning, CA, USA) containing 160 µL of the reaction buffer (20 mM HEPES, 10 % sucrose, 100 mM NaCl, 1 mM EDTA, 10 mM DTT, 0.02 % Trition X-100, pH 7.3) (HIIET, Wroclaw, Poland) with 9 µM AC-DEVD-AMC (Cayman Chemical) fluorogenic substrate (λex = 360 nm, λem = 460 nm). The fluorescence increase correlated with the caspase-3/7 level was continuously recorded at 37 °C for 120 min using a Biotek Synergy H4 (Biokom, Warsaw, Poland). Compounds were tested in duplicates in a single experiment and each experiment was repeated at least three times independently. Results were normalized to the number of cells in each well and are reported as mean relative caspase-3/7 activity compared to the untreated control sample ± SD.

caspase-3/7 [6] = experiment: Caspase-3/7 activity (AC-DEVD-AMC substrate) in PC-3 cells; format: cell-based, human; set-up: key to Caspase 3/7 Activity, PC-3: +: plus mark represents statistically important elevated activity of caspase 3/7 compared to control; details: +/− summary vs control
From the text: as §5, §6

[7] = Experimental lipophilicity by RP-TLC
Experimental: The retention mechanism in the RP-TLC method is based on the partition of substances between two phases. Silica gel (RP-18 F254S plates) was used as the hydrophobic stationary phase. In contrast, the hydrophilic mobile phase was a binary mixture of acetone and an aqueous solution of TRIS buffer.
Chromatographic analysis by RP-TLC was performed an aluminum backed silica gel RP-18 F254S
phenylanthracene] and tested betulin derivatives were dissolved in chloroform to obtain a
concentration of 2 mg/mL. The prepared solutions were spotted on the plates in the amount of 2 μL.
the next step, the chromatographic chambers were saturated 30 min of the appropriate mobile phases
consisting of a mixture of acetone (Merck, Darmstadt, Germany) and aqueous solution of buffer Tris
[(tris-hydroxymethyl)aminomethane] (Fluka, Loughborough, 0.2 M, pH 7.4). The amount of acetone in
the mobile phase were in the range 60-90% in 5% increments. The chromatograms were developed for
each compound in triplicate at room temperature. The spots of betulin derivatives were visualized by
spraying the plates with the mixture of ethanol and concentrated sulfuric acid (10:1, v/v) and heating
The retardation factor (Rf) were calculated according to the equation below:
(a-the distance from the start line to the spot center, b-the distance from the start line to the mobile
The RM values were calculated by the Bate-Smith and Westall equation:
The RM0 parameters were obtained by extrapolating on the acetone content to zero, according to the
Soczewiński-Wachtmeister equation:
(C-the percentage concentration of acetone in the mobile phase, b-the slope of the regression plot).
The calibration curve was determined using eight reference compounds.
compounds were determined under the same conditions as for betulin derivatives (Table S1).

[8] = Cytotoxicity, SRB assay, normal BALB/3T3 fibroblasts; details: mouse, BALB/3T3 normal fibroblast cells
Experimental: as §7, §8, §9, §10, §11

A549 cell line = experiment: Antiproliferative activity, SRB assay, A549 lung carcinoma cells
MCF-7 cell line = experiment: Antiproliferative activity, SRB assay, MCF-7 breast carcinoma cells
Experimental: as §7, §8, §9, §10, §11

PC-3 cell line = experiment: Antiproliferative activity, SRB assay, PC-3 prostate carcinoma cells
Experimental: as §7, §8, §9, §10, §11

## C=C(C)[C@@H]1CC[C@]2(COC(=O)CCC(=O)O)CC[C@]3(C)C(CCC4[C@@]5(C)CC[C@H](O)C(C)(C)C5CC[C@]43C)C12 (stereo partly shown) [compound 2]
MV4-11 cells [1]; Homo sapiens, MV4-11, 72 h, 72 h incubation, MTT, read-out: Growth inhibition IC50, leukemia cell line MV4-11
  IC50: 23.2 µM
MV4-11 cells [1]; IC50 BALB/3T3 / IC50 MV4-11
  Calculated Selectivity Index SI, MV4-11: 2.3
A549 cells [2]
  Induction of apoptosis (AnV/PI), A549, 24 h: significantly increased levels of early-apoptotic and apoptotic cells
PC-3 cells
  Induction of apoptosis (AnV/PI), PC-3, 72 h: shifting the ratio of the living cell population towards apoptotic and necrotic ones
A549 cells [3]; about IC50, 24 h
  Influence on cell cycle, A549, 24 h: significantly induced cell cycle arrest in the G0/G1 phase; also recorded: reduced the number of cells in the S phase with an increased number of dead cells
A549 cells [3]; about IC50, 72 h
  Influence on cell cycle, A549, 72 h: greater percentage of dead cells with a decrease in G2/M and G0/G1 phases
MV4-11 cells [4]
  Influence on cell cycle, MV4-11: statistically significant increase in the number of cells in the G0/G1 phase
caspase-3/7 [5]; 1.5 × IC50, 24 h, several-fold lower at 72 h
  caspase 3/7 activity, A549: hugely elevated caspase 3/7 activity
caspase-3/7 [5]; +/− summary vs control
  caspase 3/7 activity, A549: +
caspase-3/7 [6]
  Caspase 3/7 Activity, PC-3: +
[7]; RP-TLC, RP-18 F254S, acetone / Tris buffer pH 7.4, extrapolated to zero acetone
  RM0: 5.910
[7]; from RM0 by calibration curve with eight reference compounds
  log PTLC: 8.191
[8]
  IC50 at 72 h: 53.4 µM
A549 cell line; Homo sapiens, A549, 72 h, read-out: Cytotoxicity IC50 against A549 cell line
  IC50: 35.3 µM
A549 cell line; IC50 BALB/3T3 / IC50 A549
  Calculated Selectivity Index SI, A549: 1.5
MCF-7 cell line; Homo sapiens, MCF7, 72 h, read-out: Cytotoxicity IC50 against MCF-7 cell line
  IC50: 53.6 µM
MCF-7 cell line; IC50 BALB/3T3 / IC50 MCF-7
  Calculated Selectivity Index SI, MCF-7: 1.0
PC-3 cell line; Homo sapiens, PC-3, 72 h, read-out: Cytotoxicity IC50 against PC-3 cell line
  IC50: 68.5 µM
PC-3 cell line; IC50 BALB/3T3 / IC50 PC-3
  Calculated Selectivity Index SI, PC-3: 0.8
